Measured values reported in ChEMBL document CHEMBL1201862, “PubChem BioAssay data set” (2004).
Active and inactive are the calls of the source.

Experiments:
NADPH oxidase 1 = molecular target: T1, NADPH oxidase 1 (Homo sapiens, UniProt Q9Y5S8); assay: Late-stage luminescence-based cell-based dose response assay to identify inhibitors of NADPH oxidase 1 (NOX1): Synthesized analogs 2.; type: functional
T1 sequence (Q9Y5S8 whole entry): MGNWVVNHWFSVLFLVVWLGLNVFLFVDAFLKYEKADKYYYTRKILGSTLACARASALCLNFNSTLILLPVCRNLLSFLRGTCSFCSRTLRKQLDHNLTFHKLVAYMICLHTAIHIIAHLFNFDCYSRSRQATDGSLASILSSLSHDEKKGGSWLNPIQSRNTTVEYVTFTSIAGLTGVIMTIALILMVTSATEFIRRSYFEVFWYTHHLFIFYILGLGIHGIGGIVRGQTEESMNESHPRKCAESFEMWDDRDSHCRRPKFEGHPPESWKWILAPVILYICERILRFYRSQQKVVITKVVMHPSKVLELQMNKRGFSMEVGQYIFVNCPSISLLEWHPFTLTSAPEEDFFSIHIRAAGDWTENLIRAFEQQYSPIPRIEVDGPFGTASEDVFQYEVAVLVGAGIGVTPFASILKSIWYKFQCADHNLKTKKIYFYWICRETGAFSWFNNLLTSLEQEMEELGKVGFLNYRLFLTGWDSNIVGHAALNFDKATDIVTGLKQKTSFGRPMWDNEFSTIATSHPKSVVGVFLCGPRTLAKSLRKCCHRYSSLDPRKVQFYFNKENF

[1] = molecular target: Muscarinic acetylcholine receptor M1 (Rattus norvegicus, UniProt P08482); assay: rat M1 positive allosteric modulator potency, dose response, cell-based, calcium mobilization, CHO-K1, ACh EC20 (AID 2425); type: functional
Cytochrome P450 2C19 = Cytochrome P450 2C19 (Homo sapiens, UniProt P33261); assay: qHTS Assay for Inhibitors and Substrates of Cytochrome P450 2C19. [Related pubchem assays: 410 ]; type: ADME; details: read-out: Potency
[2] = cytotoxicity in KRAS-transformed pancreatic duct cells, primary screen, cell-based, fluorescence, HTS (AID 431); type: functional; details: Homo sapiens;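 note: cell line used: HPDE-C7K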
[3] = cytotoxicity in HPDE-C7 cells, cell-based, fluorescence, HTS (AID 430); type: functional; details: Homo sapiens

Cytochrome P450 2C19, sequence (P33261 whole entry): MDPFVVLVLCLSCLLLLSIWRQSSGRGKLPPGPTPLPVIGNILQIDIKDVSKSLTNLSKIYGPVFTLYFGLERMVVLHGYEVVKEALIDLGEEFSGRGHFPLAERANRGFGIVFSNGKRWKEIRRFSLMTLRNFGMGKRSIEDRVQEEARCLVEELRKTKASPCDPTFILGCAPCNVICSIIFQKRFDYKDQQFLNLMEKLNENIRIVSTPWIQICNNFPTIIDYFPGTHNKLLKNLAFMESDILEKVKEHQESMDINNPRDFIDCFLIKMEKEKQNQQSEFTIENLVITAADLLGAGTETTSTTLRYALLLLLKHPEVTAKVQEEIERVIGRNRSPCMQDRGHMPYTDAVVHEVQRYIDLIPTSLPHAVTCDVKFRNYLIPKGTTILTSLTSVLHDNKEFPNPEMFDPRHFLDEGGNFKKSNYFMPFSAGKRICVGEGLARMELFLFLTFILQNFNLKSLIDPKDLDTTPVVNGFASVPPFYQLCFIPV
Muscarinic acetylcholine receptor M1, sequence (P08482 whole entry): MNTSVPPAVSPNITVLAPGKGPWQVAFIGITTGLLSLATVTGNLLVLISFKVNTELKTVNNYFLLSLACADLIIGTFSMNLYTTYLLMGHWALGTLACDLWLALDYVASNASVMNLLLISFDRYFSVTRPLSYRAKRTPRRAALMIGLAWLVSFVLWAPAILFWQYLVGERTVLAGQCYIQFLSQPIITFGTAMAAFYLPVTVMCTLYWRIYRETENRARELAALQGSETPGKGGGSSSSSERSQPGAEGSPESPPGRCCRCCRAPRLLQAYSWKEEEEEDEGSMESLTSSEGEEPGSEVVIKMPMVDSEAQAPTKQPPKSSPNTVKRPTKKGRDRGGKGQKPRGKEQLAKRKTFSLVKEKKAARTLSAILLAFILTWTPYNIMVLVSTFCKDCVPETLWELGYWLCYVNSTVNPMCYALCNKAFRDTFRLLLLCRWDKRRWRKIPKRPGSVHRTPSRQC

**Q.** With `CN1c2ccccc2Sc2cc(Br)ccc21` as the compound, how does the IC50 (NADPH oxidase 1) read?
**A.** > 50 µM (not active)

**Q.** For `Cn1cc(-c2cc(F)c(CN3C(=O)C(=O)c4ccccc43)c(F)c2)cn1`, which EC50 [1] is on record?
**A.** 0.885 µM (active)

**Q.** Which results are given for `Cc1nc2sccn2c(=O)c1CCN1CCC(=C(c2ccccc2)c2ccc(F)cc2)CC1`?
**A.** AC50 (Cytochrome P450 2C19): 15.8 µM (inconclusive); EC50 [2]: 17.4 µM (active); EC50 [3]: 18.3 µM (active)
